Test results as given in patent EP4796125A1, “TREATMENT OF PATIENT WITH NEGATIVE P53 GENE MUTATION, POSITIVE KRAS GENE MUTATION AND POSITIVE BRCA MUTATION” (Ascentawits Pharmaceuticals, Ltd., priority 2023, dated 2025).

How the values were obtained:
H460 cells [1] = experiment: Cell cycle G2/M arrest, PI staining and flow cytometry; format: cell-based; conditions: 0.1 nM AST-3424, 5 µM Nutlin-3, 24 hours, combination: AST-3424 added first (Figure 9)
Method: (§1) • 1) H460/HPAF-II cell suspensions were added to a 24-well plate, with a cell density of 100000 cells/well and 995 µL of medium per well. • 2) The cells were cultured overnight in a 37°C, 5% CO2 incubator. • 3) Compound Treatment
(§2) 24 hours after cell plating, according to the protocol, the experimental groups for each cell line were as follows: Monotherapy: 24 hours after cell plating, 5 µL of test compounds at different concentrations was added: 1% DMSO, 5 µM Nutlin-3, and 0.1 nM AST-3424. The plate was gently shaken to ensure even mixing, and then placed in a 37°C, 5% CO2 incubator.
(§3) • Cells were pretreated with AST-3424 for 2 hours, and then co-treatment with Nutlin-3 for 24 hours; • cells were pretreated with Nutlin-3 for 2 hours, and then co-treatment with AS -3424 for 24 hours; and • cells were co-treated with AST-3424 and Nutlin-3 for 24 hours. • 4) The cells were digested, centrifuged at 1000 g at 4°C, washed once with pre-cooled PBS, centrifuged at 1000 g at 4°C, and fixed with 1 mL of pre-cooled 70% ethanol at - 20°C overnight. • 5) The cells were centrifuged at 3000 g at 4°C, washed once with pre-cooled PBS (phosphate buffer), and centrifuged at 3000g at 4°C. PI staining solution was prepared. The cells were stained at 37°Cfor 30 minutes (protected from light), and stored in an ice bath (protected from light). The cells were detected using a flow cytometer on the same day, and the proportions of cells in different cell cycle phases was analyzed using FlowJo.
The remaining operations were similar to those of the above experiment, and the compound treatment was as follows: […]

HPAF-II cells [2] = experiment: as above; format: cell-based, human; conditions: HPAF-II cells with p53 pathogenic mutations; 0.1 nM AST-3424, 5 µM Nutlin-3 (Figure 9)
Method: as §1, §2
as §3, with “The cells were stained at 37°Cfor 30 minutes (protected from light), and stored in an ice bath (protected from light).” left out

H460 cells [3] = experiment: In vitro proliferation inhibition experiment (CTG, 72 hours), Example 20; format: cell-based
Method: (§4) • 1) H460 and HPAF-II cell suspensions were added to a 96-well plate (100 µL per well), with cell densities of 2000 cells/well and 20000 cells/well, respectively. • 2) The cells were cultured overnight in a 37°C, 5% CO2 incubator. • 3) Compound Treatment
(§5) Combination therapy: 24 hours after cell plating, each well was supplemented with 99 µL of growth medium. Then, 0.5 µL of Nutlin-3 or RITA was added to each well. The plate was gently shaken to ensure even mixing, and then placed in an incubator for 2 hours. Then, 0.5 µL of test compounds at different concentrations was added. The plate was gently shaken to ensure even mixing, and then placed in a 37°C, 5% CO2 incubator.
(§6) Monotherapy: 24 hours after cell plating, each well was supplemented with 99.5 µL of growth medium. Then, 0.5 µL of test compounds at different concentrations was added. The plate was gently shaken to ensure even mixing, and then placed in a 37°C, 5% CO2 incubator. • 4) The cell plate was placed in the incubator for 72 hours. • 5) The cell plate to be tested was placed at room temperature and equilibrated for 30 minutes, and 100 µL of medium was discarded from each well. • 6) 25 µL of CTG reagent was added to each well, placed on a fast shaker to shake for 2 minutes, and placed at room temperature for 30 minutes (protected from light). • 7) The chemiluminescence signal value was read using a multifunctional microplate reader with a reading time of 1000 ms, and the corresponding inhibition rate data were calculated.

HPAF-II cells [4] = experiment: as above; format: cell-based, human; conditions: Table 14, HPAF-II
Method: as §4, §5, §6

[5] = tested on: Ser15-p53, Ser20-p53, Total p53, MDM2, and p21 proteins in H460 cells; experiment: WB detection of p53 protein pathway (Ser15-p53, Ser20-p53, Total p53, MDM2, p21); format: cell-based; conditions: second experiment: 0.1, 0.3, 1 nM AST-3424 ± 5 µM Nutlin-3, 24 hours, AST-3424 dose-dependent (Figure 16)
Method: • 1) H460 cell suspension was added to a 24-well plate, with a cell density of 80000 cells/well and 995 µL of medium per well. • 2) The cells were cultured overnight in a 37°C, 5% CO2 incubator. • 3) Compound Treatment
24 hours after cell plating, according to the protocol, the experimental groups for each cell line were as follows: • Monotherapy: 24 hours after cell plating, 5 µL of test compounds at different concentrations was added: 0.5% DMSO, 0.1 nM AST-3424, and 5 µM Nutlin-3. The plate was gently shaken to ensure even mixing, and then placed in a 37°C, 5% CO2 incubator. • Combination therapy: 24 hours after cell plating, 5 µL of test compounds at different concentrations was added. After pre-treatment with 5 µM Nutlin-3 for 2 hours, 0.1 nM AST-3424 was added. The plate was gently shaken to ensure even mixing, and then placed in a 37°C, 5% CO2 incubator.
4) Cell protein lysates were collected for WB detection.
• Adding 0.1 nM AST-3424 for pre-treatment for 2 hours, and then adding 5 µM Nutlin-3 for co-treatment for 22 hours; • Adding 0.3 nM AST-3424 for pre-treatment for 2 hours, and then adding 5 µM Nutlin-3 for co-treatment for 22 hours; • Adding 1 nM AST-3424 for pre-treatment for 2 hours, and then adding 5 µM Nutlin-3 for co-treatment for 22 hours. […]

[6] = tested on: Total P53, MDM2, P21, AKR1C3 proteins in H460 cells; experiment: WB detection ± Nutlin-3 in H460 and H460 P53 KO cells; format: cell-based; conditions: wild-type H460 cells; 5 µM Nutlin-3, 24h; compared with the H460 wild-type DMSO group (Figures 33, 34)
Method: • 1) H460 and H460 P53 KO cell suspensions were added to 24-well plates, with a cell density of 100000 cells/well and 995 µL of medium per well. • 2) The cells were cultured overnight in a 37°C, 5% CO2 incubator. • 3) Compound Treatment
24 hours after cell plating, according to the protocol, the experimental groups for each cell line were as follows: H460 WT non-treatment group, H460 P53 KO # 1 non-treatment group, H460 P53 KO # 7 non-treatment group, H460 P53 KO # 8 non-treatment group, H460 P53 KO # 12 non-treatment group, H460 WT 0.1% DMSO treatment group, H460 WT 5 µM Nutlin-3 treatment group, H460 P53 KO # 1 5 µM Nutlin-3 treatment group, H460 P53 KO # 7 5 µM Nutlin-3 treatment group, H460 P53 KO # 8 5 µM Nutlin-3 treatment group, and H460 P53 KO # 12 5 µM Nutlin-3 treatment group.
Monotherapy: 24 hours after cell plating, 5 µL of test compounds at different concentrations was added. […]
• 1) The cell plates were taken out and the medium supernatant was discarded. […] The cells were scraped off with a cell scraper, lysed on ice for 30 min, and centrifuged at 14000 rpm at 4°C for 10 min. • 2) Protein quantification was performed using the BCA assay. […] After the incubation, the membranes were washed three times with TBST (10 min per wash).The ECL luminescence solutions A and B (SuperSignal West Femto Maximum Sensitivity) were mixed and added to the membranes blotting dry. […]

COc1ccc(C2=N[C@@H](c3ccc(Cl)cc3)[C@@H](c3ccc(Cl)cc3)N2C(=O)N2CCNC(=O)C2)c(OC(C)C)c1 [Nutlin-3]
cell cycle (G0/G1, S, G2/M phases) (H460 cells [1]): does not significantly alter the cell cycle
cell cycle (G0/G1, S, G2/M phases) (HPAF-II cells [2]): has no effect
Inhibition rate result / % (H460 cells [3]; Table 12, H460, group 1: AST 0.5 nM, Nutlin-3 0.25 µM, AST + Nutlin-3 0.5+0.25): 11.8%
Inhibition rate result / % (H460 cells [3]; Table 12, H460, group 2: AST 0.5 nM, Nutlin-3 0.5 µM, AST + Nutlin-3 0.5+0.5): 17.27%
Inhibition rate result / % (H460 cells [3]; Table 12, H460, group 3: AST 0.5 nM, Nutlin-3 1 µM, AST + Nutlin-3 0.5+1): 18.3%
Inhibition rate result / % (H460 cells [3]; Table 12, H460, group 4: AST 1.5 nM, Nutlin-3 0.25 µM, AST + Nutlin-3 1.5+0.25): 11.8%
Inhibition rate result / % (H460 cells [3]; Table 12, H460, group 5: AST 1.5 nM, Nutlin-3 0.5 µM, AST + Nutlin-3 1.5+0.5): 17.27%
Inhibition rate result / % (H460 cells [3]; Table 12, H460, group 6: AST 1.5 nM, Nutlin-3 1 µM, AST + Nutlin-3 1.5+1): 18.3%
Inhibition rate result / % (HPAF-II cells [4]; group 1: AST 20 nM, Nutlin-3 7.5 µM, AST + Nutlin-3 20+7.5): 8.54%
Inhibition rate result / % (HPAF-II cells [4]; group 2: AST 20 nM, Nutlin-3 10 µM, AST + Nutlin-3 20+10): 52.46%
Inhibition rate result / % (HPAF-II cells [4]; group 3: AST 20 nM, Nutlin-3 15 µM, AST + Nutlin-3 20+15): 73.93%
Inhibition rate result / % (HPAF-II cells [4]; group 4: AST 60 nM, Nutlin-3 7.5 µM, AST + Nutlin-3 60+7.5): 8.54%
Inhibition rate result / % (HPAF-II cells [4]; group 5: AST 60 nM, Nutlin-3 10 µM, AST + Nutlin-3 60+10): 52.46%
Inhibition rate result / % (HPAF-II cells [4]; group 6: AST 60 nM, Nutlin-3 15 µM, AST + Nutlin-3 60+15): 73.93%
phosphorylation of p53 (Ser15-p53 and Ser20-p53), protein expression of total-p53, expression of MDM2 and p21 [5]: upregulates
expressions of MDM2, P53, P21, and AKR1C3 proteins [6]: all upregulated
